In patent publication US11964986B1, “9-oxo-9,10-dihydro-6H-pyrano[3,2-b:4,5-b′]dipyridine-8-carboxylic acid derivatives” (REJUVERON TELOMERE THERAPEUTICS AG, priority 2023, dated 2024):
Values after ≈ are worked out from the molar mass of the structure shown. Read-outs that look alike come from different tables or passages of the source.

Key:
[1] = tested on: HBsAg secretion in HepG2/2.2.15 WT cells (combined effect of PAPD5 and PAPD7 inhibition)
Experimental: (§1) The hepatocarcinoma HepG2/2.2.15 cell line (hereafter referred to as wild type) was obtained from Millipore (SCC249) and HepG2/2.2.15 PAPD5 knock-out (PAPD5 KO) and PAPD7 knock-out (PAPD7 KO) cells were generated using CRISPR/Cas9 technology.
An ELISA was performed using a hepatocarcinoma HepG2/2.2.15 wild type (WT) cell line to assess the potential of the compounds of the present invention as treatments of chronic HBV infection.
(§2) Cell seeding and addition of the compounds: On day −1, HepG2/2.2.15 cell lines were seeded in U-bottom 96-well plates (Fisher Scientific, 10777241) at a density of 1,5×10^4 cells/well in a final volume of 200 μL complemented DMEM/F12. On day 0, medium was aspirated and cells were washed once with PBS (300 μL/well). Then, PBS was replaced with complemented DMEM/F12 (200 μL/well). Using a Tecan-TE300e chemical dispenser, the compounds were added to the cells with 11 half-log incremental dilutions in dimethyl sulfoxide (DMSO) (Sigma-Aldrich, 276855) within the highest concentration equal to 25 μM (concentration range 1). DMSO was used as no-drug control, and the final DMSO concentration in all wells was 0.5%. […] On day 4, the 96-well plate was centrifuged for 5 min at 300 g to spin down cell debris. 100 μL/well of cell culture supernatant were collected and diluted 1:2 with 100 μL of complemented DMEM/F12 to perform the ELISA.
(§3) ELISA: Before starting, the “Hepatitis B surface antigen ELISA kit” (Abnova, KA0286) was equilibrated at room temperature (RT) for 1 h. […] The anti-HB plate was sealed using adhesive foil provided with the kit and incubated for 1 h at 37° C. […] After the last wash, the residual liquid was removed by turning the plate upside down and tapping on adsorbent paper. TMB substrate solutions A and B were mixed in equal volumes and 100 μL/well of this mixture were added to each well. The plate was covered with the supplied tray and incubated at RT for 20 min. During this time, a color develops in proportion to the amount of HBsAg bound to anti-HBs. After incubation, the reaction was stopped by adding 100 μL/well of 2N aqueous H2SO4 solution. The optical density of the developed color was read at 450 nm using a Cytation 5 instrument with reference wavelength at 620 nm.
(§4) CCK8 viability assay: Viability of HepG2/2.2.15 WT, PAPD5 KO and PAPD7 KO cell lines treated with the compounds was determined using the Cell Counting Kit-8 (CCK8, Sigma-Aldrich, 96992) following the manufacturer's instructions. […] During this time, WST-8 is reduced by dehydrogenases in cells to give a yellow-colored product (formazan), which is soluble in the tissue culture medium. The amount of the formazan dye generated by the activity of dehydrogenases in cells is directly proportional to the number of living cells. After 1 h incubation, the optical density of the developed color was read at 450 nm using a Cytation 5 instrument with the reference wavelength at 620 nm. CCK8 optical density values were used for normalization of the ELISA results.
To determine the IC50 values, the amount of HBsAg (optical density values of the ELISA) was corrected by the number of living cells (CCK8 optical density) per each well. Normalized HBsAg values were used to generate a dose-response curve with a non-linear regression model and applying the Levenberg-Marquardt algorithm. The percentage of inhibition was calculated relative to the untreated condition (DMSO CTRLs).

PAPD5 [2] = biological target: T1, PAPD5 (Homo sapiens, UniProt Q8NDF8); test: cell-based; design: endogenous in cells; host or cells: HepG2/2.2.15 PAPD7 knock-out cells (CRISPR/Cas9); settings: for Fold sel. for PAPD5 over PAPD7: PAPD7 KO cells vs PAPD5 KO cells
Experimental: as §1
To this end, all compounds of the present invention were also tested in an ELISA on HepG2/2.2.15 PAPD5 and PAPD7 KO cell lines to determine the compounds' potency to inhibit PAPD5 and their selectivity for PAPD5 over PAPD7.
as §2, §3, §4
To determine the IC50 values, the amount of HBsAg (optical density values of the ELISA) was corrected by the number of living cells (CCK8 optical density) per each well. Normalized HBsAg values were used to generate a dose-response curve with a non-linear regression model and applying the Levenberg-Marquardt algorithm.

PAPD7 = PAPD7 (Homo sapiens, UniProt Q5XG87); test: HBsAg ELISA in HepG2/2.2.15 PAPD5 KO cells (PAPD7 inhibitory activity); format: cell-based; settings: Table 3, HBsAg secretion, 4 days, read-out: pIC50 PAPD7 (PAPD5 KO cells) (converted)
[3] = kinetic solubility assay at pH 6.5; format: physicochemical; settings: for solubility kinetic: pH 6.5, kinetic from dmso stock
logD(pH 7.4) = format: physicochemical
[4] = tested on: telomere length in patient-derived iPSCs; test: Telomere restriction fragment (TRF) analysis in patient-derived iPSCs; settings: for telomere elongation: 4-week treatment, increasing concentrations, FIG. 2B
Experimental: Healthy donor- and patient-derived induced Pluripotent Stem Cells (iPSCs), described in Moon et al. 2015, were cultured in feeder-free condition using Matrigel hESC-qualified matrix (Corning, 354277) coated cell culture dishes. For coating, one aliquot of Corning Matrigel hESC-qualified matrix (approximately 300 μL) was thawed on ice and diluted in 25 mL ice-cold DMEM/F-12. […] The coating solution was kept on ice and Matrigel was handled using ice-cold pipette tips. 6 mL of the coating solution were added to one 10 cm cell culture dish and spread by gentle rocking. The coated dishes were then incubated at RT for at least 30 min to let the matrix solidify. The coating solution was aspirated from the dishes and cells were seeded immediately. […] Cells were incubated shortly at 37° C. and the colonies were briefly disaggregated by gentle pipetting or by agitation. The single cell suspension was transferred in a canonical tube with cold 1× PBS and centrifuged at 300 g for 5 min to remove Accutase. Cell pellet was resuspended in an appropriate volume of complemented Essential E8 medium and seeded in a Matrigel-coated dish according to the split ratio.
The scope of this assay is to isolate telomeric DNA from healthy donor- and patient-derived iPSCs and determine the average length of isolated telomeres.
The compounds were dissolved in DMSO at a 10 mM stock concentration and diluted in complemented Essential E8 medium at the reported concentrations (Table 6). For untreated samples (0 nM) DMSO only was added to the medium. Culture medium with the diluted compound was replaced daily, and cells were subcultured as described above.
To carry out the cellular assays, cells were cultured in the presence of PAPD5 inhibitors and collected at different time points. […] (2) At week 4 (Day 28), cells were harvested for DNA isolation to perform Telomere Restriction Fragment (TRF) analysis. […]
Genomic DNA extraction: At day 28 of exposure, 2×10^6 iPSCs per condition were pelleted and resuspended in 200 μl PBS. […] DNA quantification was performed using a Qubit dsDNA BR quantification kit. […]

[5] = tested on: TERC in patient-derived iPSCs; test: TERC stability by RLM-RACE in patient-derived iPSCs; settings: 1-week treatment, FIG. 2A
Experimental: For coating, one aliquot of Corning Matrigel hESC-qualified matrix (approximately 300 μL) was thawed on ice and diluted in 25 mL ice-cold DMEM/F-12. […] The coating solution was kept on ice and Matrigel was handled using ice-cold pipette tips. 6 mL of the coating solution were added to one 10 cm cell culture dish and spread by gentle rocking. The coated dishes were then incubated at RT for at least 30 min to let the matrix solidify. The coating solution was aspirated from the dishes and cells were seeded immediately. […] Cells were incubated shortly at 37° C. and the colonies were briefly disaggregated by gentle pipetting or by agitation. The single cell suspension was transferred in a canonical tube with cold 1× PBS and centrifuged at 300 g for 5 min to remove Accutase. Cell pellet was resuspended in an appropriate volume of complemented Essential E8 medium and seeded in a Matrigel-coated dish according to the split ratio.
The compounds were dissolved in DMSO at a 10 mM stock concentration and diluted in complemented Essential E8 medium at the reported concentrations (Table 6). […]
Samples were spun at 12000 g for 10 min at 4° C. […] The RNA concentration was measured using a Qubit HS RNA quantification kit (Thermo Fisher, Q32852). […]
DNA was stored overnight at −20° C. before loading on agarose gel. PCR products were quantified using a Qubit dsDNA BR quantification kit (Thermo Fisher, Q32850). […]

[6] = Plasma protein binding (fraction unbound)
Text: (§5) In the ELISA 10% plasma protein (p=0.1) is used, whereas the assays using iPSCs are run in a plasma protein-free medium.

PAPD5 [7] = biological target: T1, PAPD5; test: Degree of PAPD5 target engagement calculated for test concentrations in assays using iPSCs; design: endogenous in cells
Text: as §5

HBsAg = settings: Table 4; effective concentration that achieved 50% inhibitory effect; from WO2019177937; cited from earlier work
[8] = Table 3, HepG2/2.2.15 PAPD7 KO cells, HBsAg secretion, 4 days, read-out: pIC50 PAPD5 (PAPD7 KO cells) (converted)
[9] = Table 5, PAPD7 KO cells, read-out: PIC50 PAPD5 (PAPD7 KO cells) (converted)
[10] = PAPD5 IC50 by ELISA, HepG2/2.2.15 PAPD7 KO cell line, 10% plasma protein, read-out: IC50ELISA
[11] = unbound IC50 in protein-free medium, IC50ELISA*fu,ELISA, read-out: IC50u

T1 sequence (Q8NDF8 whole entry): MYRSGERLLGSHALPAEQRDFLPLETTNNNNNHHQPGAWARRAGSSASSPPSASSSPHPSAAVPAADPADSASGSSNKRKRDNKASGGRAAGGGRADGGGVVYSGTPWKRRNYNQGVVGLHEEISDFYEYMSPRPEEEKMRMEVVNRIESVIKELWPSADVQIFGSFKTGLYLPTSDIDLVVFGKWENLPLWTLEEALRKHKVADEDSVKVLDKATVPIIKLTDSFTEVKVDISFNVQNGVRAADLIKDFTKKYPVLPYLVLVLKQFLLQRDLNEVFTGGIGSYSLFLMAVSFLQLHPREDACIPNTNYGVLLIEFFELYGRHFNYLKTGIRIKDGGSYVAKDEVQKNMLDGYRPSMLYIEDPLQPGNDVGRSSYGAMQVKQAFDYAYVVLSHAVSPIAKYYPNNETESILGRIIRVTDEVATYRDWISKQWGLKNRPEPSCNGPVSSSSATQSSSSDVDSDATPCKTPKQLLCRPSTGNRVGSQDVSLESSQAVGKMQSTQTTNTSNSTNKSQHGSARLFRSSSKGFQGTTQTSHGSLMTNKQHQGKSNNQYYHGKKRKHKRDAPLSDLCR
PAPD7, sequence (Q5XG87 whole entry): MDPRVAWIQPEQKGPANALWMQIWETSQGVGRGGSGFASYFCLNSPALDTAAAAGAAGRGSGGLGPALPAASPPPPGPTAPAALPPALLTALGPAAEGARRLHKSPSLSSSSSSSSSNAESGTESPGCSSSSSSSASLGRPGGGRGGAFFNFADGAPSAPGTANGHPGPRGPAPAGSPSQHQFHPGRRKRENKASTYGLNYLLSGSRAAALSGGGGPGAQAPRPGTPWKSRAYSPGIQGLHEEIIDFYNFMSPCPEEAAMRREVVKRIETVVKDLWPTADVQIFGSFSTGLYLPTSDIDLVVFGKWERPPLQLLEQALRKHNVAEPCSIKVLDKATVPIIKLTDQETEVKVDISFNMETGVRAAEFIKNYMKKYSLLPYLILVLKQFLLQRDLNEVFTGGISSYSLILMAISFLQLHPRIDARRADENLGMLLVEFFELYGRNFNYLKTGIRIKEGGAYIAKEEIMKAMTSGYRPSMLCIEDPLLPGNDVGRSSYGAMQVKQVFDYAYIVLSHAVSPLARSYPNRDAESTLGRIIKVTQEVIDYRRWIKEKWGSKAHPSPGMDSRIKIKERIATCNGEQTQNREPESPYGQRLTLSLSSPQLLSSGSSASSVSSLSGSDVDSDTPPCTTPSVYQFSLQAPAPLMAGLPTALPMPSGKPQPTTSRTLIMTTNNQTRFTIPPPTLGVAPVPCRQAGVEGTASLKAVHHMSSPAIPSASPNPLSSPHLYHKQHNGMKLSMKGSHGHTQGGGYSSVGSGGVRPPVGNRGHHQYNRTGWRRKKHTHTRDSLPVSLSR

Row | Compound | IC50 [1] [nM] | IC50 (PAPD5 [2]; [8]) [nM] | Fold sel. for PAPD5 over PAPD7 (PAPD5 [2]; Table 3) [Fold] | IC50 (PAPD7) [nM] | other results
1 | COCCCOc1cc2c(nc1OC)-c1[nH]c(=O)c(C(=O)O)cc1C(C(C)C)O2 (racemic) [Example 501, (RS)-6-Isopropyl-2-methoxy-3-(3-methoxypropoxy)-9-oxo-9,10-dihydro-6H-pyrano[3,2-b:4,5-b′]dipyridine-8-carboxylic acid] | 7.94 | 6.31 | 7.1 | 39.8 | –
2 | COCCCOc1cc2c(nc1OC)-c1c(cc(C(=O)O)c(=O)n1C)C(C(C)C)O2 (racemic) [Example 502, (RS)-6-Isopropyl-2-methoxy-3-(3-methoxypropoxy)-10-methyl-9-oxo-9,10-dihydro-6H-pyrano[3,2-b:4,5-b′]dipyridine-8-carboxylic acid] | 6.31 | – | – | 12.6 | –
3 | CCn1c2c(cc(C(=O)O)c1=O)C(C(C)C)Oc1cc(OCCCOC)c(OC)nc1-2 (racemic) [Example 503, (RS)-10-Ethyl-6-isopropyl-2-methoxy-3-(3-methoxypropoxy)-9-oxo-9,10-dihydro-6H-pyrano[3,2-b:4,5-b′]dipyridine-8-carboxylic acid] | 1.26 | 1 | 5.9 | 5.01 | –
4 | COCCCOc1cc2c(nc1OC)-c1c(cc(C(=O)O)c(=O)n1C1CC1)C(C(C)C)O2 (racemic) [Example 504, (RS)-10-Cyclopropyl-6-isopropyl-2-methoxy-3-(3-methoxypropoxy)-9-oxo-9,10-dihydro-6H-pyrano[3,2-b:4,5-b′]dipyridine-8-carboxylic acid] | 0.501 | 0.631 | 4.8 | 2.51 | –
5 | COCCCOc1cc2c(nc1OC)-c1[nH]c(=O)c(C(=O)O)cc1C(C(C)(C)C)O2 (racemic) [Example 505, (RS)-6-(tert-Butyl)-2-methoxy-3-(3-methoxypropoxy)-9-oxo-9,10-dihydro-6H-pyrano[3,2-b:4,5-b′]dipyridine-8-carboxylic acid] | 2 | 2 | 4.9 | 10 | fold more soluble than example 701 ([3]; kinetic solubility assay at pH 6.5): 2.6 fold; solubility kinetic [3]: 484 µM (≈ 203 µg/mL); IC50 (PAPD5 [2]; [9]): 2 nM; logD (logD(pH 7.4)): 1.1
6 | COCCCOc1cc2c(nc1OC)-c1c(cc(C(=O)O)c(=O)n1C1CC1)C(C(C)(C)C)O2 (racemic) [Example 506, (RS)-6-(tert-Butyl)-10-cyclopropyl-2-methoxy-3-(3-methoxypropoxy)-9-oxo-9,10-dihydro-6H-pyrano[3,2-b:4,5-b′]dipyridine-8-carboxylic acid] | 0.2 | – | 6.1 | 0.501 | telomere length after elongation ([4]; 0.5 nM, 4 weeks of treatment): up to 8 kb; telomere elongation [4]: dose-dependently effects telomere elongation; levels of the mature and stable form of TERC [5]: restores the steady-state and physiological levels of the mature and stable form of TERC; IC50 (PAPD5 [2]; [10]): 0.0847 nM; IC50 (PAPD5 [2]; [9]): 0.0794 nM; IC50 (PAPD5 [2]; [11]): 0.07 nM; fraction unbound [6]: 0.347; fraction unbound ([6]; fu, ELISA, fraction unbound in ELISA, calculated with p = 0.1): 0.84; % Target engagement (X) (PAPD5 [7]; test conc. 0.1 nM): 54%; % Target engagement (X) (PAPD5 [7]; test conc. 0.5 nM): 86%; % Target engagement (X) (PAPD5 [7]; test conc. 2.5 nM): 97%
7 | COCCCOc1cc2c(nc1C1CC1)-c1[nH]c(=O)c(C(=O)O)cc1C(C(C)(C)C)O2 (racemic) [Example 507, (RS)-6-(tert-Butyl)-2-cyclopropyl-3-(3-methoxypropoxy)-9-oxo-9,10-dihydro-6H-pyrano[3,2-b:4,5-b′]dipyridine-8-carboxylic acid] | 0.794 | 0.398 | 1.8 | 0.631 | –
8 | COCCCOc1cc2c(nc1C1CC1)-c1c(cc(C(=O)O)c(=O)n1C1CC1)C(C(C)(C)C)O2 (racemic) [Example 508, (RS)-6-(tert-butyl)-2,10-dicyclopropyl-3-(3-methoxypropoxy)-9-oxo-9,10-dihydro-6H-pyrano[3,2-b:4,5-b′]dipyridine-8-carboxylic acid] | 0.0631 | 0.1 | 1.0 | 0.1 | –
9 | COCCCOc1cc2c(nc1OC)-c1c(cc(C(=O)O)c(=O)n1CCO)C(C(C)C)O2 (racemic) [Example 510, (RS)-10-(2-Hydroxyethyl)-6-isopropyl-2-methoxy-3-(3-methoxypropoxy)-9-oxo-9,10-dihydro-6H-pyrano[3,2-b:4,5-b′]dipyridine-8-carboxylic acid] | 15.8 | 5.01 | 6.4 | 31.6 | –
10 | COCCCOc1cc2c(nc1OC)-c1c(cc(C(=O)O)c(=O)n1CC(F)F)C(C(C)C)O2 (racemic) [Example 511, (RS)-10-(2,2-Difluoroethyl)-6-isopropyl-2-methoxy-3-(3-methoxypropoxy)-9-oxo-9,10-dihydro-6H-pyrano[3,2-b:4,5-b′]dipyridine-8-carboxylic acid] | 1.26 | 0.794 | 6.9 | 5.01 | –
11 | COCCCOc1cc2c(nc1OC)-c1[nH]c(=O)c(C(=O)O)cc1C(C(C)(C)C)C2 (racemic) [Example 701, (RS)-5-(tert-Butyl)-9-methoxy-8-(3-methoxypropoxy)-2-oxo-1,2,5,6-tetrahydro-1,10-phenanthroline-3-carboxylic acid, reference compound] | – | – | – | – | solubility kinetic [3]: 186 µM (≈ 77.3 µg/mL); logD (logD(pH 7.4)): 1.4
12 | COCCCOc1cc2c(nc1OC)-c1c(cc(C(=O)O)c(=O)n1C1CC1)C(C(C)(C)C)C2 (racemic) [Example 702, (RS)-5-(tert-Butyl)-1-cyclopropyl-9-methoxy-8-(3-methoxypropoxy)-2-oxo-1,2,5,6-tetrahydro-1,10-phenanthroline-3-carboxylic acid, reference compound] | 2.51 | – | – | – | IC50 (PAPD5 [2]; [9]): 3.16 nM
13 | COCCCOc1cc2c(cc1OC)-c1[nH]c(=O)c(C(=O)O)cc1C(C(C)(C)C)O2 (racemic) [Example 801, (RS)-5-(tert-Butyl)-9-methoxy-8-(3-methoxypropoxy)-2-oxo-1,5-dihydro-2H-chromeno[4,3-b]pyridine-3-carboxylic acid, reference compound] | 39.8 | – | – | – | IC50 (PAPD5 [2]; [9]): 50.1 nM
14 | COCCCOc1cc2c(cc1OC)-c1c(cc(C(=O)O)c(=O)n1C1CC1)C(C(C)(C)C)O2 (racemic) [Example 802, (RS)-5-(tert-Butyl)-1-cyclopropyl-9-methoxy-8-(3-methoxypropoxy)-2-oxo-1,5-dihydro-2H-chromeno[4,3-b]pyridine-3-carboxylic acid, reference compound] | 1 | – | – | – | –
15 | COCCCOc1cc2c(nc1OC)-c1[nH]c(=O)c(C(=O)O)cc1C1(CCCC1)O2 [Example 509, 2′-Methoxy-3′-(3-methoxypropoxy)-9′-oxo-9′,10′-dihydrospiro[cyclopentane-1,6′-pyrano[3,2-b:4,5-b′]dipyridine]-8′-carboxylic acid] | 25.1 | 31.6 | 10.4 | 316 | –
16 | COCCCOc1cc2c(cc1OC)-c1cc(=O)c(C(=O)O)cn1[C@H](C(C)C)C2 [RG7834] | – | – | – | – | telomere elongation [4]: dose-dependently effects telomere elongation; levels of the mature and stable form of TERC [5]: restores the steady-state and physiological levels of the mature and stable form of TERC; IC50 (PAPD5 [2]; [10]): 1.64 nM; IC50 (PAPD5 [2]; [11]): 1.35 nM; fu, plasma: 0.328; fu, ELISA (plasma): 0.83; % Target engagement (X) (PAPD5 [7]; test conc. 0.3 nM): 16%; % Target engagement (X) (PAPD5 [7]; test conc. 1 nM): 38%; % Target engagement (X) (PAPD5 [7]; test conc. 3 nM): 65%; % Target engagement (X) (PAPD5 [7]; test conc. 10 nM): 86%; % Target engagement (X) (PAPD5 [7]; test conc. 30 nM): 95%
17 | (RS)-6-Isopropyl-2-methoxy-3-(3-methoxypropoxy)-9-oxo-9,10-dihydro-6H-pyrano[3,2-b:4,5-b′]dipyridine-8-carboxylic acid [Example 501] | – | – | – | – | EC50 (HBsAg): 94 nM
